Assays:
Botrytis cinerea = Botrytis cinerea (gray mold) in vitro test, radial growth on potato dextrose agar; assay type: cell-based; conditions: 168 h, 300 ppm in potato dextrose agar, 22° C., 90% relative humidity, seven days, read-out: control compared to the untreated check (radial growth)
Pyricularia oryzae [1] = test: microbe, parasite or virus in culture; assay type: cell-based; conditions: 168 h, read-out: control compared to the untreated check (radial growth)
Pyricularia oryzae [2] = test: whole plant or invertebrate; assay type: in vivo, Pyricularia oryzae on rice; conditions: read-out: Efficacy (% control), disease severity compared to the untreated check
[3] = tested on: Septoria lycopersici/Corynespora cassicola (CORYCA); test: Septoria lycopersici/Corynespora cassicola (CORYCA) (leaf spot of tomato) in vitro test, radial growth on potato dextrose agar; assay type: cell-based; conditions: 168 h, 300 ppm in potato dextrose agar, 25° C., 70% relative humidity, seven days, read-out: control compared to the untreated check (radial growth)
Alternaria solani = Alternaria solani (early blight of tomato/potato) in vitro test, radial growth on potato dextrose agar; assay type: cell-based; conditions: 168 h, 300 ppm in potato dextrose agar, 25° C., 60% relative humidity, seven days, read-out: control compared to the untreated check (radial growth)
Rhizoctonia solani = Rhizoctonia solani (rice sheath blight/potato black scurf) in vitro test, radial growth on potato dextrose agar; assay type: cell-based; conditions: 168 h, 300 ppm in potato dextrose agar, 25° C., 60% relative humidity, seven days, read-out: control compared to the untreated check (radial growth)
Phakopsora pachyrhizi = Phakopsora pachyrhizi test in soybean, preventive, in vivo on plants; conditions: in Glycine max, read-out: Efficacy (% control), disease severity compared to the untreated check
Fusarium culmorum = Fusarium culmorum (foot rot of cereals) in vitro test, radial growth on potato dextrose agar; assay type: cell-based; conditions: 168 h, 300 ppm in potato dextrose agar, 25° C., 60% relative humidity, seven days, read-out: control compared to the untreated check (radial growth)
Outline: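 Compound in 0.3% DMSO mixed into potato dextrose agar, plates seeded with a 5 mm mycelial disc from an actively growing virulent culture. After seven days at 25° C and 60% relative humidity, radial growth was measured against untreated control.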

Colletotrichum capsici = Colletotrichum capsici (anthracnose) in vitro test, radial growth on potato dextrose agar; assay type: cell-based; conditions: Colletotrichum truncatum, 168 h; 300 ppm in potato dextrose agar; 25° C., 60% relative humidity, seven days; read-out: control compared to the untreated check (radial growth)

CCN(C)C=Nc1cc(C)cc(Cc2ccc(F)c(Cl)c2)c1Cl [Compound 54, N′-(2-chloro-3-(3-chloro-4-fluorobenzyl)-5-methylphenyl)-N-ethyl-N-methylformimidamide]
≥ 70%: inhibition of growth at 300 ppm (Botrytis cinerea) | inhibition of growth at 300 ppm (Pyricularia oryzae [1]) | pest or weed control at 500 ppm (Pyricularia oryzae [2]) | inhibition of growth at 300 ppm [3] | inhibition of growth at 300 ppm (Alternaria solani) | inhibition of growth at 300 ppm (Rhizoctonia solani) | pest or weed control at 500 ppm (Phakopsora pachyrhizi) | inhibition of growth at 300 ppm (Fusarium culmorum)

CCN(C)C=Nc1cc(C)cc(Cc2ccc(OC(F)(F)F)cc2)c1Cl [Compound 52, N′-(2-chloro-5-methyl-3-(4-(trifluoromethoxy)benzyl)phenyl)-N-ethyl-N-methylformimidamide]
≥ 70%: inhibition of growth at 300 ppm (Botrytis cinerea) | inhibition of growth at 300 ppm (Pyricularia oryzae [1]) | pest or weed control at 500 ppm (Pyricularia oryzae [2]) | inhibition of growth at 300 ppm [3] | inhibition of growth at 300 ppm (Alternaria solani) | inhibition of growth at 300 ppm (Rhizoctonia solani) | pest or weed control at 500 ppm (Phakopsora pachyrhizi) | inhibition of growth at 300 ppm (Fusarium culmorum)

CCN(C)C=Nc1cc(Cl)cc(N(C)c2ccccc2F)c1C [Compound 178, N′-(5-chloro-3-((2-fluorophenyl)(methyl)amino)-2-methylphenyl)-N-ethyl-N-methylformimidamide]
≥ 70%: inhibition of growth at 300 ppm (Botrytis cinerea) | inhibition of growth at 300 ppm (Pyricularia oryzae [1]) | pest or weed control at 500 ppm (Pyricularia oryzae [2]) | inhibition of growth at 300 ppm (Alternaria solani) | inhibition of growth at 300 ppm (Rhizoctonia solani) | pest or weed control at 500 ppm (Phakopsora pachyrhizi)

CCN(C)C=Nc1cc(C)cc(Cc2ccccc2OC(F)(F)F)c1Cl [Compound 50, N′-(2-chloro-5-methyl-3-(2-(trifluoromethoxy)benzyl)phenyl)-N-ethyl-N-methylformimidamide]
≥ 70%: inhibition of growth at 300 ppm (Botrytis cinerea) | inhibition of growth at 300 ppm (Colletotrichum capsici) | inhibition of growth at 300 ppm (Pyricularia oryzae [1]) | pest or weed control at 500 ppm (Pyricularia oryzae [2]) | inhibition of growth at 300 ppm [3] | inhibition of growth at 300 ppm (Alternaria solani) | inhibition of growth at 300 ppm (Rhizoctonia solani) | pest or weed control at 500 ppm (Phakopsora pachyrhizi)

CCN(C)C=Nc1cc(C)cc(Cc2ccc(C(F)(F)F)cc2)c1Cl [Compound 51, N′-(2-chloro-5-methyl-3-(4-(trifluoromethyl)benzyl)phenyl)-N-ethyl-N-methylformimidamide]
≥ 70%: inhibition of growth at 300 ppm (Botrytis cinerea) | inhibition of growth at 300 ppm (Colletotrichum capsici) | inhibition of growth at 300 ppm (Pyricularia oryzae [1]) | pest or weed control at 500 ppm (Pyricularia oryzae [2]) | inhibition of growth at 300 ppm [3] | inhibition of growth at 300 ppm (Alternaria solani) | inhibition of growth at 300 ppm (Rhizoctonia solani) | pest or weed control at 500 ppm (Phakopsora pachyrhizi) | inhibition of growth at 300 ppm (Fusarium culmorum)

CCN(C)C=Nc1cc(Cl)cc(N(C)c2cccc(Cl)c2)c1C [Compound 180, N′-(5-chloro-3-((3-chlorophenyl)(methyl)amino)-2-methylphenyl)-N-ethyl-N-methylformimidamide]
≥ 70%: pest or weed control at 500 ppm (Pyricularia oryzae [2]) | inhibition of growth at 300 ppm (Alternaria solani)

CCN(C)C=Nc1cc(Cl)cc(Cc2cccc(C)c2)c1C [Compound 94, N′-(5-chloro-2-methyl-3-(3-methylbenzyl)phenyl)-N-ethyl-N-methylformimidamide]
≥ 70%: inhibition of growth at 300 ppm (Botrytis cinerea) | inhibition of growth at 300 ppm (Colletotrichum capsici) | inhibition of growth at 300 ppm (Pyricularia oryzae [1]) | pest or weed control at 500 ppm (Pyricularia oryzae [2]) | inhibition of growth at 300 ppm [3] | inhibition of growth at 300 ppm (Alternaria solani) | inhibition of growth at 300 ppm (Rhizoctonia solani) | pest or weed control at 500 ppm (Phakopsora pachyrhizi)

CCN(C)C=Nc1cc(C)cc(NCc2ccccc2C(F)(F)F)c1Cl [Compound 181, N′-(2-chloro-5-methyl-3-((2-(trifluoromethyl)benzyl)amino)phenyl)-N-ethyl-N-methylformimidamide]
≥ 70%: inhibition of growth at 300 ppm (Botrytis cinerea) | inhibition of growth at 300 ppm (Colletotrichum capsici) | inhibition of growth at 300 ppm (Pyricularia oryzae [1]) | pest or weed control at 500 ppm (Pyricularia oryzae [2]) | inhibition of growth at 300 ppm (Alternaria solani) | inhibition of growth at 300 ppm (Rhizoctonia solani) | pest or weed control at 500 ppm (Phakopsora pachyrhizi)

CCN(C)C=Nc1cc(OC)cc(Cc2cccc(F)c2)c1C [Compound 277, N-ethyl-N′-(3-(3-fluorobenzyl)-5-methoxy-2-methylphenyl)-N-methylformimidamide]
≥ 70%: pest or weed control at 500 ppm (Pyricularia oryzae [2]) | pest or weed control at 500 ppm (Phakopsora pachyrhizi)

CCN(C)C=Nc1cc(C)cc(Cc2cc(C)cc(C)c2)c1Cl [Compound 55, N′-(2-chloro-3-(3,5-dimethylbenzyl)-5-methylphenyl)-N-ethyl-N-methylformimidamide]
≥ 70%: inhibition of growth at 300 ppm (Botrytis cinerea) | inhibition of growth at 300 ppm (Pyricularia oryzae [1]) | pest or weed control at 500 ppm (Pyricularia oryzae [2]) | inhibition of growth at 300 ppm [3] | inhibition of growth at 300 ppm (Alternaria solani) | inhibition of growth at 300 ppm (Rhizoctonia solani) | pest or weed control at 500 ppm (Phakopsora pachyrhizi) | inhibition of growth at 300 ppm (Fusarium culmorum)

CCN(C)C=Nc1cc(C)cc(Cc2cccc(C)c2)c1Cl [Compound 17, N′-(2-chloro-5-methyl-3-(3-methylbenzyl)phenyl)-N-ethyl-N-methylformimidamide]
≥ 70%: inhibition of growth at 300 ppm (Botrytis cinerea) | inhibition of growth at 300 ppm (Colletotrichum capsici) | inhibition of growth at 300 ppm (Pyricularia oryzae [1]) | inhibition of growth at 300 ppm [3] | inhibition of growth at 300 ppm (Alternaria solani) | inhibition of growth at 300 ppm (Rhizoctonia solani) | pest or weed control at 500 ppm (Phakopsora pachyrhizi) | inhibition of growth at 300 ppm (Fusarium culmorum)

— US12545639B2, “3-substituted phenylamidine compounds, preparation and use thereof” (PI INDUSTRIES LTD., priority 2019, dated 2026)
